Consider two molecules from patent US6231885A, “Composition for controlled and sustained transdermal administration” (Permatec Technologie AG, priority 1997, dated 2001).

A short description of this data set: In vitro enhancer release, paddle over disk method (apparatus 5, USP 23). In kind it is physicochemical. Conditions: in words, in vitro and in vivo results. As for the experimental part: The release of lauric acid and oleic acid was analyzed using paddle over disk method (apparatus 5, USP 23, Drug Release 724).
FIG. 1 schematically shown the apparatus mentioned before. In these experiments we have determined the release profiles of lauric acid and oleic acid from transdermal patches, measuring the remaining drug (by means of HPLC techniques) in samples taken at different time points.
The examples used were: Example 1; Example 2 and Example 3.
The dissolution conditions used were: paddle speed: 50 rpm; temperature: 32° C.; dissolution medium: aqueous solution of sodium dodecyl sulphate 0.3%; volume: 500 ml; sample program: 0.5; 1.0; 2.0; 4.0; 8.0 and 24 h.

SMILES strings stand for the structures. Entries after “also recorded” stand apart in the source; their conditions may differ.

On to `CCCCCCCCCCCC(=O)O` [Lauric acid], for which the “Release from the adhesive matrix” value is recorded as “rapid release”. Moreover, the “Release from the adhesive matrix” value (listed as lauric acid) was “a great proportion of the amount of lauric acid is delivered at early times”. For the molecule `CCCCCCCC/C=C\CCCCCCCC(=O)O` [oleic acid], the “Release from the adhesive matrix” value was “slow release; also recorded: delivered in small amount and is prone to remain in the adhesive monolithic matrix”.
